Several values for one entry are separate records, joined by “and”; a condition that tells them apart may be missing. Identical values can stand only once. Like-named read-outs stand apart in the source and are kept apart here. Marks after values point to notes of the source that are not given here. Values belong to the compound of their own block, whether it stands above or below them.
Columns and labels:
[1] = system: rats; experiment: 28-day repeated dose study in rats with mass spectrometry-based plasma metabolite profiling (GC-MS, LC-MS, SPE-LC-MS); treatment ratios versus control
Protocol: (§1) A group of each 5 male and female rats was dosed once daily with the indicated compounds (see Table 9, below for compounds, applied doses and administration details) over 28 days.
(§2) Each dose group in the studies consisted of five rats per sex. Additional groups of each 5 male and female animals served as controls. Before starting the treatment period, animals, which were 62-64 days old when supplied, were acclimatized to the housing and environmental conditions for 7 days. All animals of the animal population were kept under the same constant temperature (20-24±3° C.) and the same constant humidity (30-70%). The animals of the animal population were fed ad libitum. The food to be used was essentially free of chemical or microbial contaminants. Drinking water was also offered ad libitum. […] The illumination period was 12 hours light followed by 12 hours darkness (12 hours light, from 6:00 to 18:00, and 12 hours darkness, from 18:00 to 6:00). […] The test substances (compounds in Table 9 were dosed and administered as described in the table above.
(§3) In the morning of day 7, 14, and 28, blood was taken from the retroorbital venous plexus from fasted anaesthetized animals. From each animal, 1 ml of blood was collected with EDTA as anticoagulant. The samples were centrifuged for generation of plasma. All plasma samples were covered with a N2 atmosphere and then stored at −80° C. until analysis.
(§4) For mass spectrometry-based metabolite profiling analyses plasma samples were extracted and a polar and a non-polar (lipid) fraction was obtained. For GC-MS analysis, the non-polar fraction was treated with methanol under acidic conditions to yield the fatty acid methyl esters. Both fractions were further derivatised with O-methyl-hydroxyamine hydrochloride and pyridine to convert Oxo-groups to O-methyloximes and subsequently with a silylating agent before analysis. In LC-MS analysis, both fractions were reconstituted in appropriate solvent mixtures. HPLC was performed by gradient elution on reversed phase separation columns.
(§5) Steroids and their metabolites were measured by online SPE-LC-MS (Solid phase extraction-LC-MS).
(§6) Following comprehensive analytical validation steps, the data for each analyte were normalized against data from pool samples. These samples were run in parallel through the whole process to account for process variability. The significance of treatment group values specific for sex, treatment duration and metabolite was determined by comparing means of the treated groups to the means of the respective untreated control groups using WELCH-test and quantified with treatment ratios versus control and p-values.

[2] = system: rats; settings: rat, in vivo
Protocol: as §1, §2, §3, §4, §5, §6

[3] = plasma, female rats, day 28, high dose, Table 5a tubular necrosis
[4] = plasma, female rats, day 28, high dose, Table 5b tubular necrosis
[5] = plasma, female rats, day 14, high dose, Table 2a glomerular-tubular defect
[6] = plasma, female rats, day 14, high dose, Table 2b glomerular-tubular defect
[7] = plasma, female rats, day 28, high dose, Table 2a glomerular-tubular defect
[8] = plasma, female rats, day 28, high dose, Table 2b glomerular-tubular defect
[9] = plasma, male rats, day 7, high dose, Table 2d glomerular-tubular defect
[10] = plasma, male rats, day 14, high dose, Table 2c glomerular-tubular defect
[11] = plasma, male rats, day 14, high dose, Table 2d glomerular-tubular defect
[12] = plasma, male rats, day 28, high dose, Table 2c glomerular-tubular defect
[13] = plasma, male rats, day 28, high dose, Table 2d glomerular-tubular defect

18-Hydroxy-11-deoxycorticosterone, treatment ratio versus control ([1]; rat, in vivo): 0.38 * | Choline plasmalogen No 03, treatment ratio versus control ([1]; rat, in vivo): 1.55 * and 1.56 * | Creatinine, treatment ratio versus control ([1]; rat, in vivo): 0.84 * | Glutamate, treatment ratio versus control ([1]; rat, in vivo): 0.55 * and 0.65 * and 0.7 * | Glycine, treatment ratio versus control ([1]; rat, in vivo): 1.5 * | Hippuric acid, treatment ratio versus control ([1]; rat, in vivo): 0.38 * | Lysophosphatidylcholine (C20:4), treatment ratio versus control ([1]; rat, in vivo): 0.85 * and 0.87 * and 0.89 * | Malate, treatment ratio versus control ([1]; rat, in vivo): 0.61 * and 0.55 * and 0.54 * | Proline, treatment ratio versus control ([1]; rat, in vivo): 1.23 | Sphingomyelin (d18:2, C16:0), treatment ratio versus control ([1]; rat, in vivo): 2.34* | Threonine, treatment ratio versus control ([1]; rat, in vivo): 1.2 * and 1.59 * | Choline plasmalogen No 03, treatment ratio versus control [2]: 1.25 * | Histidine, treatment ratio versus control [2]: 1.29 * | Pantothenic acid, treatment ratio versus control [2]: 1.23 * | Threonic acid, treatment ratio versus control [2]: 1.46 * | Threonine, treatment ratio versus control [2]: 1.58 * | Valine, treatment ratio versus control [2]: 1.15 * | trans-4-Hydroxyproline, treatment ratio versus control [2]: 1.23 *
SMILES: Cn1c(=O)c2c(ncn2C)n(C)c1=O [Caffeine]

Leucine, treatment ratio versus control [2]: 1.26 *
SMILES: NC[C@H]1O[C@H](O[C@H]2[C@H](O)[C@@H](O[C@H]3O[C@H](CO)[C@@H](O)[C@H](N)[C@H]3O)[C@H](N)C[C@@H]2N)[C@H](N)C[C@@H]1O [Tobramycin s.c., Tobramycin]
Docosahexaenoic acid (C22:cis[4,7,10,13,16,19]6), treatment ratio versus control [1, 3]: 1.05 * | Docosapentaenoic acid (C22:cis[7,10,13,16,19]5), treatment ratio versus control [1, 3]: 1.56 * | Eicosanoic acid (C20:0), treatment ratio versus control [1, 3]: 1.05 | Glycerol, lipid fraction, treatment ratio versus control [1, 3]: 1.2 * | Phosphate (inorganic and organic phosphates), treatment ratio versus control [1, 3]: 1.3 * | Hippuric acid, treatment ratio versus control [1, 4]: 0.14 * | Lactate, treatment ratio versus control [1, 4]: 0.64 *

3-Hydroxyindole, treatment ratio versus control [1, 5]: 0.87^ | 3-Indoxylsulfate, treatment ratio versus control [1, 5]: 0.93^ | Creatinine, treatment ratio versus control [1, 5]: 1.69 * | Elaidic acid (C18:trans[9]1), treatment ratio versus control [1, 5]: 1.2 | Adrenaline (Epinephrine), treatment ratio versus control [1, 6]: 0.55 * | Glucosamine, treatment ratio versus control [1, 6]: 0.75^ | Mannosamine, treatment ratio versus control [1, 6]: 0.64 * | 3-Hydroxyindole, treatment ratio versus control [1, 7]: 1.53 * | Elaidic acid (C18:trans[9]1), treatment ratio versus control [1, 7]: 1.35 * | Glucosamine, treatment ratio versus control [1, 8]: 0.48 * | Histamine, treatment ratio versus control [1, 8]: 0.52 * | Mannosamine, treatment ratio versus control [1, 8]: 0.5 * | 4-Hydroxy-3-methoxyphenylglycol (HMPG), treatment ratio versus control [1, 9]: 0.91 * | Cysteine, treatment ratio versus control [1, 9]: 0.46 * | Isopalmitic acid (C16:0), treatment ratio versus control [1, 9]: 0.75 * | Metanephrine, treatment ratio versus control [1, 9]: 0.83 * | Normetanephrine, treatment ratio versus control [1, 9]: 0.79 * | Creatine, treatment ratio versus control [1, 10]: 1.35 * | Creatinine, treatment ratio versus control [1, 10]: 1.8 * | Threonic acid, treatment ratio versus control [1, 10]: 1.4 * | 4-Hydroxy-3-methoxyphenylglycol (HMPG), treatment ratio versus control [1, 11]: 0.84 * | Cysteine, treatment ratio versus control [1, 11]: 0.51 * | Metanephrine, treatment ratio versus control [1, 11]: 0.43 * | Normetanephrine, treatment ratio versus control [1, 11]: 0.66 * | Creatine, treatment ratio versus control [1, 12]: 1.27 * | Glycerol-3-phosphate, polar fraction, treatment ratio versus control [1, 12]: 1.4 * | Lysophosphatidylcholine (C18:2), treatment ratio versus control [1, 12]: 1.1 | Threonic acid, treatment ratio versus control [1, 12]: 1.7 * | 4-Hydroxy-3-methoxyphenylglycol (HMPG), treatment ratio versus control [1, 13]: 0.79 * | Cysteine, treatment ratio versus control [1, 13]: 0.85 * | Metanephrine, treatment ratio versus control [1, 13]: 0.68 * | Normetanephrine, treatment ratio versus control [1, 13]: 0.68 * | 3-Indoxylsulfate, treatment ratio versus control [2]: 1.41 * | Adrenaline (Epinephrine), treatment ratio versus control [2]: 1.14^ | Histamine, treatment ratio versus control [2]: 1.36^ | Threonic acid, treatment ratio versus control [2]: 1.47 *
SMILES: CC(C)(S)[C@@H](N)C(=O)O [Penicillamine]
